Values quoted from earlier work as cited in patent US20150018320A1, “Hormone Containing Emulsion Comprising Krill Phospholipids” (B. Braun Melsungen AG, priority 2012, published 2015).

Test system: TBI patients
Settings: two clinical trials

For CC(=O)[C@H]1CC[C@H]2[C@@H]3CCC4=CC(=O)CC[C@]4(C)[C@H]3CC[C@]12C [progesterone, pregn-4-ene-3,20-dione], the mortality is given as “decreased mortality” and the safety and tolerability is given as “safe and well tolerated”.
